Laboratory results taken from patent publication US20260223848A1, “METHOD OF INCREASING SUGAR PRODUCTION FROM SUGARCANE” (CORTEVA AGRISCIENCE LLC, priority 2021, published 2026).

What was measured:
Type in all cases: in vivo
[1] = tested on: sugarcane; assay: Sugarcane ripening field studies, florpyrauxifen-benzyl and haloxyfop-P-methyl; conditions: for ripening performance: versus the standards trinexapac and sulfometuron
[2] = tested on: ratoon sugarcane; assay: Ratoon sugarcane control field studies; conditions: for % Control: post application, 4 to 6 leaves, 50 to 60 cm
Protocol: In order to study the activity of Haloxyfop-P-methyl as possible herbicide for ratoon sugarcane control, field studies were carried out. Haloxyfop-P-methyl was tested at 124; 248; 373; 620 and 1240 g ai/ha plus mineral oil at 0.5% v/v and compared to key standard, as glyphosate (Glizmax Prime®) at 2160 g ae/ha. Trials were sprayed postemergence with 4 to 6 leaves or 50 to 60 cm of ratoon sugarcane regrowth and assessed percentage of control at 14; 30; 45 and 60 days after application (DAA).

[3] = tested on: sugarcane; assay: Sugarcane ripening field studies, halauxifen-methyl plus haloxyfop-P-methyl; conditions: six field studies, 30 days after application, rate g ai/ha: halauxifen-methyl 2.16, mixture 27 + 2.16, haloxyfop-P-methyl 27, sulfometuron 15, trinexapac 250; for Gain Fiber: untreated 0.5; for Gain POL: untreated 2.7; for Gain Purity: untreated 6.8; for Gain TRS: untreated 23.4
[4] = 30 days after application, rate g ai/ha: haloxyfop-P-methyl 27, florpyrauxifen-benzyl 2.2, mixture 27 + 2.2, sulfometuron 15, trinexapac 250, untreated 0.6
[5] = 30 days after application, rate g ai/ha: haloxyfop-P-methyl 27, florpyrauxifen-benzyl 2.2, mixture 27 + 2.2, sulfometuron 15, trinexapac 250, untreated 2.8
[6] = 30 days after application, rate g ai/ha: haloxyfop-P-methyl 27, florpyrauxifen-benzyl 2.2, mixture 27 + 2.2, sulfometuron 15, trinexapac 250, untreated 7.2
[7] = 30 days after application, rate g ai/ha: haloxyfop-P-methyl 27, florpyrauxifen-benzyl 2.2, mixture 27 + 2.2, sulfometuron 15, trinexapac 250, untreated 25.2
[8] = 45 days after application, rate g ai/ha: haloxyfop-P-methyl 27, florpyrauxifen-benzyl 2.2, mixture 27 + 2.2, sulfometuron 15, trinexapac 250, untreated 1.2
[9] = 45 days after application, rate g ai/ha: haloxyfop-P-methyl 27, florpyrauxifen-benzyl 2.2, mixture 27 + 2.2, sulfometuron 15, trinexapac 250, untreated 4.2
[10] = 45 days after application, rate g ai/ha: haloxyfop-P-methyl 27, florpyrauxifen-benzyl 2.2, mixture 27 + 2.2, sulfometuron 15, trinexapac 250, untreated 7.7
[11] = 45 days after application, rate g ai/ha: haloxyfop-P-methyl 27, florpyrauxifen-benzyl 2.2, mixture 27 + 2.2, sulfometuron 15, trinexapac 250, untreated 38.4
[12] = single application 50 L/ha 60 days before harvest, 30 DAA, rate g ai/ha: florpyrauxifen-benzyl 2.2, sulfometuron 15, trinexapac 250, untreated 2.8
[13] = single application 50 L/ha 60 days before harvest, 30 DAA, rate g ai/ha: florpyrauxifen-benzyl 2.2, sulfometuron 15, trinexapac 250, untreated 7.2
[14] = single application 50 L/ha 60 days before harvest, 30 DAA, rate g ai/ha: florpyrauxifen-benzyl 2.2, sulfometuron 15, trinexapac 250, untreated 25.2
[15] = single application 50 L/ha 60 days before harvest, 45 DAA, rate g ai/ha: florpyrauxifen-benzyl 2.2, sulfometuron 15, trinexapac 250, untreated 4.2
[16] = single application 50 L/ha 60 days before harvest, 45 DAA, rate g ai/ha: florpyrauxifen-benzyl 2.2, sulfometuron 15, trinexapac 250, untreated 7.7
[17] = single application 50 L/ha 60 days before harvest, 45 DAA, rate g ai/ha: florpyrauxifen-benzyl 2.2, sulfometuron 15, trinexapac 250, untreated 38.4
[18] = 14.5 g ai/ha, single application 50 L/ha 60 days before harvest, 30 DAA
[19] = 14.5 g ai/ha, single application 50 L/ha 60 days before harvest, 45 DAA
[20] = 50 g ai/ha, single application 50 L/ha 60 days before harvest, 30 DAA
[21] = 50 g ai/ha, single application 50 L/ha 60 days before harvest, 45 DAA
[22] = 100 g ai/ha, single application 50 L/ha 60 days before harvest, 30 DAA
[23] = 100 g ai/ha, single application 50 L/ha 60 days before harvest, 45 DAA

COc1c(Cl)ccc(-c2nc(C(=O)OCc3ccccc3)c(Cl)c(N)c2F)c1F [Florpyrauxifen-benzyl, florpyrauxifen-benzyl]
Gain Fiber [1, 4]: 0.5%
Gain POL [1, 5]: 2.6%
Gain Purity [1, 6]: 7.5%
Gain TRS [1, 7]: 23.0 kg/ton
Gain Fiber [1, 8]: 1.5%
Gain POL [1, 9]: 4.9%
Gain Purity [1, 10]: 10.3%
Gain TRS [1, 11]: 44.0 kg/ton
ripening performance ([1]; at 30 DAA): comparable to the standards trinexapac and sulfometuron
ripening performance ([1]; at 45 DAA): unexpectedly superior to the standards
Gain POL [1, 12]: 2.6%
Gain Purity [1, 13]: 7.5%
Gain TRS [1, 14]: 23.0 kg/ton
Gain POL [1, 15]: 4.9%
Gain Purity [1, 16]: 10.3%
Gain TRS [1, 17]: 44.0 kg/ton

O=C(O)CNCP(=O)(O)O [Glyphosate, glyphosate]
% Control ([2]; 2160 g ai/ha, 14 DAA): 84.5%
% Control ([2]; 2160 g ai/ha, 30 DAA): 89.3%
% Control ([2]; 2160 g ai/ha, 45 DAA): 95.7%
% Control ([2]; 2160 g ai/ha, 60 DAA): 96.0%

COC(=O)c1nc(-c2ccc(Cl)c(OC)c2F)cc(N)c1Cl [Halauxifen-methyl, halauxifen-methyl]
Gain Fiber [3]: 0.5%
Gain POL [3]: 3%
Gain Purity [3]: 7.1%
Gain TRS [3]: 25.4 kg/ton

COC(=O)[C@@H](C)Oc1ccc(Oc2ncc(C(F)(F)F)cc2Cl)cc1 [Haloxyfop-P-methyl, haloxyfop-P-methyl]
Gain POL [1, 18]: 3.3%
Gain Purity [1, 18]: 13.0%
Gain TRS [1, 18]: 27.8 kg/ton
Gain POL [1, 19]: 6.7%
Gain Purity [1, 19]: 18.3%
Gain TRS [1, 19]: 49.6 kg/ton
Gain POL [1, 20]: 2.8%
Gain Purity [1, 20]: 8.1%
Gain TRS [1, 20]: 23.7 kg/ton
Gain POL [1, 21]: 4.4%
Gain Purity [1, 21]: 10.3%
Gain TRS [1, 21]: 39.9 kg/ton
Gain POL [1, 22]: 3.2%
Gain Purity [1, 22]: 7.2%
Gain TRS [1, 22]: 28.6 kg/ton
Gain POL [1, 23]: 4.0%
Gain Purity [1, 23]: 8.8%
Gain TRS [1, 23]: 36.7 kg/ton
Gain Fiber [1, 4]: 0.4%
Gain POL [1, 5]: 2.6%
Gain Purity [1, 6]: 6.1%
Gain TRS [1, 7]: 23.7 kg/ton
Gain Fiber [1, 8]: 0.1%
Gain POL [1, 9]: 4.4%
Gain Purity [1, 10]: 10.3%
Gain TRS [1, 11]: 39.9 kg/ton
Gain Fiber [3]: 0.7%
Gain POL [3]: 2.9%
Gain Purity [3]: 6.6%
Gain TRS [3]: 24.7 kg/ton
% Control ([2]; 124 g ai/ha, 14 DAA): 60.5%
% Control ([2]; 124 g ai/ha, 30 DAA): 86.5%
% Control ([2]; 124 g ai/ha, 45 DAA): 91.5%
% Control ([2]; 124 g ai/ha, 60 DAA): 89.8%
% Control ([2]; 248 g ai/ha, 14 DAA): 67.2%
% Control ([2]; 248 g ai/ha, 30 DAA): 88.7%
% Control ([2]; 248 g ai/ha, 45 DAA): 92.0%
% Control ([2]; 248 g ai/ha, 60 DAA): 90.8%
% Control ([2]; 373 g ai/ha, 14 DAA): 68.3%
% Control ([2]; 373 g ai/ha, 30 DAA): 91.0%
% Control ([2]; 373 g ai/ha, 45 DAA): 93.5%
% Control ([2]; 373 g ai/ha, 60 DAA): 92.2%
% Control ([2]; 620 g ai/ha, 14 DAA): 71.8%
% Control ([2]; 620 g ai/ha, 30 DAA): 94.7%
% Control ([2]; 620 g ai/ha, 45 DAA): 95.2%
% Control ([2]; 620 g ai/ha, 60 DAA): 94.8%
% Control ([2]; 1240 g ai/ha, 14 DAA): 74.5%
% Control ([2]; 1240 g ai/ha, 30 DAA): 95.2%
% Control ([2]; 1240 g ai/ha, 45 DAA): 96.3%
% Control ([2]; 1240 g ai/ha, 60 DAA): 95.5%
ratoon sugarcane control ([2]; rates from 373 to 1240 g ai/ha at 30 DAA): more than 90%

COC(=O)c1ccccc1S(=O)(=O)NC(=O)Nc1nc(C)cc(C)n1 [Sulfometuron, sulfometuron-methyl]
Gain Fiber [1, 4]: 0.6%
Gain POL [1, 5]: 2.4%
Gain Purity [1, 6]: 6.5%
Gain TRS [1, 7]: 21.3 kg/ton
Gain Fiber [1, 8]: 0.6%
Gain POL [1, 9]: 3.6%
Gain Purity [1, 10]: 10.9%
Gain TRS [1, 11]: 31.4 kg/ton
Gain POL [1, 12]: 2.4%
Gain Purity [1, 13]: 6.5%
Gain TRS [1, 14]: 21.3 kg/ton
Gain POL [1, 15]: 3.6%
Gain Purity [1, 16]: 10.9%
Gain TRS [1, 17]: 31.4 kg/ton
Gain Fiber [3]: 0.1%
Gain POL [3]: 1.9%
Gain Purity [3]: 1.9%
Gain TRS [3]: 15.9 kg/ton

CCOC(=O)C1CC(=O)C(=C(O)C2CC2)C(=O)C1 (stereo not drawn) [Trinexapac, trinexapac-ethyl]
Gain Fiber [1, 4]: 0.4%
Gain POL [1, 5]: 2.9%
Gain Purity [1, 6]: 6.8%
Gain TRS [1, 7]: 25.8 kg/ton
Gain Fiber [1, 8]: 0.8%
Gain POL [1, 9]: 3.8%
Gain Purity [1, 10]: 5.8%
Gain TRS [1, 11]: 34.9 kg/ton
Gain POL [1, 12]: 2.9%
Gain Purity [1, 13]: 6.8%
Gain TRS [1, 14]: 25.0 kg/ton
Gain POL [1, 15]: 3.8%
Gain Purity [1, 16]: 5.8%
Gain TRS [1, 17]: 34.9 kg/ton
Gain Fiber [3]: 0.4%
Gain POL [3]: 2.5%
Gain Purity [3]: 5.8%
Gain TRS [3]: 21.8 kg/ton
